Source: US8188081B2, “Methods of treating inflammation using prokineticin 1 receptor antagonists” (Janssen Pharmaceutica, NV, priority 2005, dated 2012)
Values joined by “and” are separate entries in the source; they are usually repeats but may differ in a detail not shown here. Equal values may be shown once. “Also recorded” adds a separate entry of the source.

Assays:
[1] = molecular target: T1, GPR73 (PK1 receptor) (Homo sapiens, UniProt Q8TCW9); assay: PK1 functional assay: screening for PK1 antagonists on the FLIPR (calcium dye) in HEK 293 GPR73 expressing cells; format: cell-based; conditions: for Ca^2+ Mobilization % Inh @10 μM: 10 μM compound; for Ca^2+ Mobilization % Inh @10 μM / IC50 / inhibition at 10 µM: HEK 293 GPR73 (PK1 receptor) expressing cells, FLIPR; for IC50: PK1 ligand at EC50, read-out: Ca^2+ Mobilization IC50; for inhibition at 10 µM: HEK293, 10 μM compound, read-out: Ca^2+ Mobilization % Inh @10 μM
T1 construct: expressed in transfected cells; host or cells: HEK 293
Procedure: At a time of 24 h prior to running the assay, in cell culture media (DMEM containing high Glucose and L-glutamine, 10% FBS, 1% Pen/Streptomycin, 1% Sodium Pyruvate, 20 mM HEPES, Zeocin 200 mg/L), 100 μL of 1.3*10^6/ml HEK 293 GPR73 (PK1 receptor) expressing cells were plated in a 96 well poly-d-lysine coated plate (Costar), and incubated at 37° C. and 5% CO2. On the day in which the assay was run, the media was removed and 200 μL of 5× Calcium Plus Dye (Molecular Devices) which was previously resuspended with 200 mL of assay buffer [HBSS w/Ca^2+ and Mg^2+ w/o phenol red, 20 mM HEPES, 0.1% BSA, 10 mL probenecid (710 mg probenecid in 5 mL of 1N NaOH, to which was then added 5 mL HBSS containing 20 mM HEPES)] was added to each well of the 96-well plate. The plate was incubated at 37° C. and 5% CO2 for 30 min in dark. The plate was removed and allowed to reach RT for 15 min in the dark. The assay was then run on the FLIPR. […] Baseline is described as the amount of relative fluorescence read when buffer alone is added to cells. Baseline was subtracted from all wells. Percent of control was calculated as follows: (Baseline subtracted well value is divided by baseline subtracted max value)*100. Percent inhibition is 100 minus the percent of control value.
IC50 values were calculated using GraphPad Prism.
Table 2 includes data generated from the PK1 functional assay described in Example 2.

[2] = system: rat ileum; assay: Contractility of isolated rat GI segments ex vivo (myobath organ bath), response to PK1

T1 sequence (Q8TCW9 whole entry, species assumed): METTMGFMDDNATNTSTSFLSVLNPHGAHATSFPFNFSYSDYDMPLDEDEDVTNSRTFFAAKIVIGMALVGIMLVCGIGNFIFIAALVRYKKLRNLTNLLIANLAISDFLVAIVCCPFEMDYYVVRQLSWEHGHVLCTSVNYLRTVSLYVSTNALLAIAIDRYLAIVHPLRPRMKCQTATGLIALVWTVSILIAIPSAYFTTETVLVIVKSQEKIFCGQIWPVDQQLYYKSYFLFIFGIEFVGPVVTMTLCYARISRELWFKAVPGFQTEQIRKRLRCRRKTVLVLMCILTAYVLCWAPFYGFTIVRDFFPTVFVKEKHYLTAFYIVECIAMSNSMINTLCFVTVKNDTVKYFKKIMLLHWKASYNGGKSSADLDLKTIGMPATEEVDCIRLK

| Compound | IC50 [1] | other results |
| --- | --- | --- |
| N-Benzoyl-N-{2-[5-(4-fluoro-benzyl)-1-(4-methoxy-benzyl)-4,6-dioxo-1,4,5,6-tetrahydro-[1,3,5]triazin-2-ylamino]-ethyl}-guanidine [Cpd 134] | 0.019 µM and 0.028 µM | Ca^2+ Mobilization % Inh @10 μM [1]: 97, 97% |
| COc1ccc(Cn2c(NCCNC(=N)N)nc(=O)n(CC(C)(C)C)c2=O)cc1 [Cpd 123] | > 10 µM | – |
| COc1ccc(Cn2c(NCCNC(=N)NCCc3ccccn3)nc(=O)n(Cc3ccc(F)cc3)c2=O)cc1 [Cpd 105] | – | Ca^2+ Mobilization % Inh @10 μM [1]: 100% |
| N=C(N)NCCNc1nc(=O)n(Cc2ccccc2)c(=O)n1Cc1ccc(F)cc1 [Cpd 1] | > 10 µM | – |
| NC1=N[C@H](O)[C@H]2[C@H]3O[C@]4(O)O[C@@H]([C@@H](O)[C@@]2(N1)[C@@H]4O)[C@]3(O)CO [Tetrodotoxin, reference compound] | – | effect on the early component of the PK1-evoked contractile response [2]: attenuate |
| COc1ccc(Cn2c(N[C@H]3CCCC[C@@H]3NC(=N)N)nc(=O)n(Cc3ccc(Cl)c(Cl)c3)c2=O)cc1 [JNJ 28611921] | – | activity at the PK1 receptor ([1]; cellular assay): lack significant activity; also recorded: not active |
| N=C(N)NCCNc1nc(=O)n(Cc2ccc(F)cc2)c(=O)n1Cc1ccc([N+](=O)[O-])cc1 [Cpd 87] | > 10 µM | – |
| COc1ccc(Cn2c(NCCNC(=N)N)nc(=O)n(Cc3ccc(C(=O)O)cc3)c2=O)cc1 [Cpd 101, 4-[4-(2-Guanidino-ethylamino)-3-(4-methoxy-benzyl)-2,6-dioxo-3,6-dihydro-2H-[1,3,5]triazin-1-ylmethyl]-benzoic acid] | > 10 µM | – |
| N-{2-[5-(4-Fluoro-benzyl)-1-(4-methoxy-benzyl)-4,6-dioxo-1,4,5,6-tetrahydro-[1,3,5]triazin-2-ylamino]-ethyl}-N-(4-fluoro-phenyl)-guanidine [Cpd 119] | 0.006 µM and 0.012 µM | Ca^2+ Mobilization % Inh @10 μM ([1]; 10 µM): 102% and 99% |
| N-{2-[5-(4-Fluoro-benzyl)-1-(4-methoxy-benzyl)-4,6-dioxo-1,4,5,6-tetrahydro-[1,3,5]triazin-2-ylamino]-ethyl}-N-amino-guanidine [Cpd 93] | 0.227 µM | Ca^2+ Mobilization % Inh @10 μM [1]: 92% |
| N=C(N)NCCNc1nc(=O)n(Cc2ccccc2)c(=O)n1Cc1cccc(C(F)(F)F)c1 [Cpd 7] | > 10 µM | – |
| N=C(N)NCCNc1nc(=O)n(Cc2ccccc2)c(=O)n1Cc1ccncc1 [Cpd 11] | > 10 µM | – |
| COc1ccc(Cn2c(=O)nc(NCCNC(=N)N)n(Cc3ccc(O)cc3)c2=O)cc1 [Cpd 143, N-{2-[1-(4-Hydroxy-benzyl)-5-(4-methoxy-benzyl)-4,6-dioxo-1,4,5,6-tetrahydro-[1,3,5]triazin-2-ylamino]-ethyl}-guanidine] | – | inhibition at 10 µM [1]: 101% |
| COc1ccc(Cn2c(NCCN(C(=N)N)c3ccccn3)nc(=O)n(Cc3ccc(F)cc3)c2=O)cc1 [Cpd 104, N-{2-[5-(4-Fluoro-benzyl)-1-(4-methoxy-benzyl)-4,6-dioxo-1,4,5,6-tetrahydro-[1,3,5]triazin-2-ylamino]-ethyl}-N-pyridin-2-yl-guanidine] | – | Ca^2+ Mobilization % Inh @10 μM ([1]; 10 µM): 99% |
| COc1ccc(Cn2c(NCCNC(=N)N)nc(=O)n(Cc3ccccc3OC)c2=O)cc1 [Cpd 21] | > 10 µM | – |
| COc1ccc(Cn2c(N[C@H]3CCCC[C@@H]3NC(=N)N)nc(=O)n(Cc3ccc(Cl)c(Cl)c3)c2=O)cc1 [Cpd 43] | > 10 µM | – |
| COc1ccc(Cn2c(NCCONC(=N)N)nc(=O)n(Cc3ccccc3)c2=O)cc1 [Cpd 10] | > 10 µM | inhibition at 10 µM [1]: 33% |
| N-{2-[5-Benzyl-1-(4-methoxy-benzyl)-4,6-dioxo-1,4,5,6-tetrahydro-[1,3,5]triazin-2-ylamino]-ethyl}-oxyguanidine [Cpd 27] | – | Ca^2+ Mobilization % Inh @10 μM [1]: 55% |
| COc1ccc(Cn2c(N[C@@H](C)[C@H](C)NC(=N)N)nc(=O)n(Cc3ccc(F)cc3)c2=O)cc1 [Cpd 136] | > 10 µM | – |
| CN1[C@@H]2CC[C@H]1C[C@@H](OC(=O)C(CO)c1ccccc1)C2 (stereo partly shown) [Atropine, reference compound] | – | effect on the early component of the PK1-evoked contractile response [2]: attenuate |
| N-{2-[5-(4-Fluoro-benzyl)-1-(4-methoxy-benzyl)-4,6-dioxo-1,4,5,6-tetrahydro-[1,3,5]triazin-2-ylamino]-ethyl}-N-(2-fluoro-phenyl)-guanidine [Cpd 118] | 0.006 µM | Ca^2+ Mobilization % Inh @10 μM ([1]; 10 µM): 98% and 102% |
| COc1ccc(Cn2c(NCCNC(=N)NCCc3ccccc3)nc(=O)n(Cc3ccc(Cl)c(Cl)c3)c2=O)cc1 [Cpd 65] | – | Ca^2+ Mobilization % Inh @10 μM [1]: 88% |
| COc1ccc(Cn2c(NCCNC(=N)N)nc(=O)n(Cc3cccc(C#N)c3)c2=O)cc1 [Cpd 98] | > 10 µM | – |
| N-{2-[5-(3,4-Dichloro-benzyl)-1-(4-methoxy-benzyl)-4,6-dioxo-1,4,5,6-tetrahydro-[1,3,5]triazin-2-ylamino]-ethyl}-N-isopropyl-guanidine [Cpd 58] | – | Ca^2+ Mobilization % Inh @10 μM ([1]; 10 µM): 102% and 99% |
| COc1ccc(Cn2c(NCCNC(=N)N)nc(=O)n(Cc3cccc(N)c3)c2=O)cc1 [Cpd 96] | > 10 µM | – |
| COc1ccc(Cn2c(N[C@H](C)[C@@H](C)NC(=N)N)nc(=O)n(Cc3ccc(F)cc3)c2=O)cc1 [Cpd 137] | – | inhibition at 10 µM [1]: 98% |
